Tests used:
[1] = target: HPK1 kinase (aal-346. Life Technologies) (Homo sapiens (Human), UniProt Q92918); assay: HPK Kinase Activity Assay at 1 mM ATP (TR-FRET); format: biochemical; settings: HPK1 kinase 40 nM, 0.5 μM STK1 substrate, read-out: Enzymatic activity IC50
[2] = test system: pSLP76(S376) level in Jurkat cell line; assay: Cellular pSLP76(S376) HTRF Assay; format: cell-based; settings: Homo sapiens, Jurkat, Jurkat cells, 2 h compound treatment, stimulated with 0.05 μg/mL anti-human CD3 (OKT3) for 30 min

Sequence of HPK1 kinase (aal-346. Life Technologies) (Q92918 1-346): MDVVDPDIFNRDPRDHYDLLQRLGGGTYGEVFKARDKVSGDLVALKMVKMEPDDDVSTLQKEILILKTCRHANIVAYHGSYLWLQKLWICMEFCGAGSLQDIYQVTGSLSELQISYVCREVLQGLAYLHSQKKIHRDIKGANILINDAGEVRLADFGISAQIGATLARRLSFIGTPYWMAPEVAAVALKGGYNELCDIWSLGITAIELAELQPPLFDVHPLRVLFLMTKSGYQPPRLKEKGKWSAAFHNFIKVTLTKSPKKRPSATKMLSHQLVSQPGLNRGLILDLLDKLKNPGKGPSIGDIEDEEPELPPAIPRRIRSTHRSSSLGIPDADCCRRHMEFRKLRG

For `COC[C@@H]1COCCN1c1cc(-c2cnc(N)c(Oc3cnn(C4CCN(C)CC4)c3)n2)cc(C2(O)COC2)c1` [Example A76, (R)-3-(3-(5-amino-6-((1-(1-methylpiperidin-4-yl)-1H-pyrazol-4-yl)oxy)pyrazin-2-yl)-5-(3-(methoxymethyl)morpholino)phenyl)oxetan-3-ol], which IC50 [1] is on record?
The IC50 was 5.8 nM.

And the IC50 [2]?
Its IC50 is 62 nM.

How did the IC50 [1] turn out when `CC1OCCC1(O)c1cc(-c2cnc(N)c(Oc3cnn(C4CCN(C)CC4)c3)n2)cc(N2CCOC[C@H]2C)c1` (single isomer, unassigned) [Example A95A] was run?
Its IC50 is 44 nM.

And the IC50 [2]?
The IC50 was 124 nM.

For `CNC(=O)c1c(C)cc(-c2cnc(N)c(Oc3cnn(C4CCN(C)CC4)c3)n2)cc1C` [Example A3, 4-(5-amino-6-(1-(1-methylpiperidin-4-yl)-1H-pyrazol-4-yloxy)pyrazin-2-yl)-N,2,6-trimethylbenzamide], which IC50 [1] is on record?
Its IC50 is 110 nM.

And the IC50 [2]?
The IC50 was 150 nM.

With `CNC(=O)NCc1c(C)cc(-c2cnc(N)c(Oc3cnn(C4CCN(C)CC4)c3)n2)cc1C` [Example A26, 1-(4-(5-amino-6-((1-(1-methylpiperidin-4-yl)-1H-pyrazol-4-yl)oxy)pyrazin-2-yl)-2,6-dimethylbenzyl)-3-methylurea] as the compound, how does the IC50 [1] read?
Its IC50 is 30 nM.

And the IC50 [2]?
The IC50 was 82 nM.

Which results are given for `Cc1cc(-c2cnc(N)c(Oc3cnn(C4CCN(C)CC4)c3)n2)cc(S(N)(=O)=O)c1` [Example A6, 3-(5-amino-6-((1-(1-methylpiperidin-4-yl)-1H-pyrazol-4-yl)oxy)pyrazin-2-yl)-5-methylbenzenesulfonamide]?
IC50 [1]: 44 nM; IC50 [2]: 35 nM

Which IC50 [1] does the source give for `CNS(=O)(=O)c1cc(C)cc(-c2cnc(N)c(Oc3cnn(C4CCN(CC5COC5)CC4)c3)n2)c1` [Example A28, 3-(5-amino-6-((1-(1-(oxetan-3-ylmethyl)piperidin-4-yl)-1H-pyrazol-4-yl)oxy)pyrazin-2-yl)-N, 5-dimethylbenzenesulfonamide] here?
The IC50 was 50 nM.

What about the IC50 [2] of the same compound?
Its IC50 is 97 nM.

Which results are given for `Cc1cc(-c2cnc(N)c(Oc3cnn(C4CCN(C)CC4)c3)n2)cc(C2(NS(=O)(=O)CC(F)(F)F)CC2)c1` [Example A25, N-(l-(3-(5-amino-6-((1-(1-methylpiperidin-4-yl)-H-pyrazol-4-yl)oxy)pyrazin-2-yl)-5-methylphenyl)cyclopropyl)-2,2,2-trifluoroethane-1-sulfonamide]?
IC50 [1]: 14 nM; IC50 [2]: 62 nM

`Cc1cc(-c2cnc(N)c(Oc3cnn(C4CCN(C)CC4)c3)n2)cc(C2(NS(=O)(=O)c3ccccc3)CC2)c1` [Example A20, N-(1-(3-(5-amino-6-((1-(1-methylpiperidin-4-yl)-1H-pyrazol-4-yl)oxy)pyrazin-2-yl)-5-methylphenyl)cyclopropyl)benzenesulfonamide] was tested. Which IC50 [1] did it give?
Its IC50 is 70 nM.

What about the IC50 [2] of the same compound?
The IC50 was 97 nM.

Which results are given for `Cc1cc(-c2cnc(N)c(Oc3cnn(C4CCN(C)CC4)c3)n2)cc(C)c1C(=O)NCCN1CCCCC1` [Example A5, 4-(5-amino-6-(1-(1-methylpiperidin-4-yl)-1H-pyrazol-4-yloxy)pyrazin-2-yl)-2,6-dimethyl-N-(2-(piperidin-1-yl)ethyl)benzamide]?
IC50 [1]: 35 nM; IC50 [2]: 70 nM

Which IC50 [1] does the source give for `Cc1cc(-c2cnc(N)c(Oc3cnn(C4CCN(C)CC4)c3)n2)cc(C2(O)CCCC2)c1` [Example A65, 1-(3-(5-amino-6-((1-(1-methylpiperidin-4-yl)-1H-pyrazol-4-yl)oxy)pyrazin-2-yl)-5-methylphenyl)cyclopentan-1-ol] here?
Its IC50 is 18 nM.

And the IC50 [2]?
The IC50 was 84 nM.

`CCN1CCC(n2cc(Oc3nc(-c4cc(C)cc(S(=O)(=O)NC)c4)cnc3N)cn2)CC1` [Example A27, 3-(5-amino-6-((1-(1-ethylpiperidin-4-yl)-1H-pyrazol-4-yl)oxy)pyrazin-2-yl)-N,5-dimethylbenzenesulfonamide] was tested. Which IC50 [1] did it give?
Its IC50 is 57 nM.

And the IC50 [2]?
The IC50 was 81 nM.

How did the IC50 [1] turn out when `Cc1cc(-c2cnc(N)c(Oc3cnn(C4CCN(C)CC4)c3)n2)cc(C(=O)NCCN(C)C)c1C` [Example A17, 5-(5-amino-6-((1-(1-methylpiperidin-4-yl)-1H-pyrazol-4-yl)oxy)pyrazin-2-yl)-N-(2-(dimethylamino)ethyl)-2,3-dimethylbenzamide] was run?
The IC50 was 59 nM.

And the IC50 [2]?
The IC50 was 194 nM.
